# According to patent publication US20230255938A1, “COMPOSITION FOR INHIBITING SEBUM SECRETION COMPRISING FABP4 INHIBITOR” (THE INDUSTRY & ACADEMIC COOPERATION IN CHUNGNAM NATIONAL …, priority 2022, published 2023):
# Assays:
# Assay type in all cases: cell-based
# SREBP-1 = test: Western blotting of SREBP-1 in IGF-1-treated immortalized human sebocytes; settings: 1, 2 or 5 μM BMS309403 for 1 hour, then 50 ng/mL IGF-1; Western blot, FIG. 1 upper left
# Protocol: (§1) Immortalized human sebocytes were used for the experiment. The cell lines were established as previously described. All procedures were approved by the Institutional Committee of Chungnam National University Hospital. The immortalized human sebocytes were cultured in Sebomed medium (Biochrom, Berlin, Germany) supplemented with 10% fetal bovine serum (Gibco BRL, Rockville, Md., USA) and 5 ng/mL of recombinant human EGF (Invitrogen, Grand Island, N.Y., USA).
# (§2) After harvesting, the cells were lysed in protein extraction solution (Intron, Daejeon, Korea). Equal amounts of protein were then loaded and separated by […], and then the proteins were transferred onto nitrocellulose membranes (Pall Corp., Port Washington, N.Y., USA). After blocking with 5% skim milk, the membranes were incubated with various primary antibodies. The blot was reacted with a secondary antibody conjugated with peroxidase, and were visualized for specific proteins with ECL (BIOMAX, Seoul, Korea). The primary antibodies used in western blot analysis were as follows: Actin, SREBP-1(Santa Cruz, Calif.), PPAR-γ, phospho-IGFR (p-IGFR), phospho-Akt (Cell Signaling Technology, Danvers, Mass.)
# (§3) The effect of BMS309403 on IGF-1-induced lipid synthesis was measured using an immortalized human sebaceous cell line established in a previous study. Immortalized human sebocytes were treated with 1, 2 or 5 μM of BMS309403. […]
# PPAR-γ = test: Western blotting of PPAR-γ in IGF-1-treated immortalized human sebocytes; settings: 1, 2 or 5 μM BMS309403 for 1 hour, then 50 ng/mL IGF-1; Western blot, FIG. 1 upper left
# Protocol: as §1, §2, §3
# phospho-IGFR (p-IGFR) = test: Western blotting of phospho-IGFR in IGF-1-treated immortalized human sebocytes; settings: 1, 2 or 5 μM BMS309403 for 1 hour, then 50 ng/mL IGF-1; Western blot, FIG. 1 lower left
# Protocol: as §1, §2, §3
# phospho-Akt = test: Western blotting of phospho-Akt in IGF-1-treated immortalized human sebocytes; settings: 1, 2 or 5 μM BMS309403 for 1 hour, then 50 ng/mL IGF-1; Western blot, FIG. 1 lower left
# Protocol: as §1, §2, §3
# [1] = system: immortalized human sebocytes; test: TLC of intracellular lipids (14C-acetate), IGF-1-induced lipid synthesis; settings: 1, 2 or 5 μM; TLC 48 hours after IGF-1 (50 ng/mL) treatment; FIG. 1 right
# Protocol: as §1
# For quantitative analysis of intracellular lipids, the present invention used the TLC method as used in previous studies. Briefly, immortalized human sebocytes were cultured in a medium containing 2 μCi of ^14C-acetate and sodium salt (PerkinElmer, Boston, Mass., USA) and allowed to react for 4 hours. Intracellular lipids were extracted with chloroform and methanol (2:1, v/v). The solvent was evaporated and the lipid was resuspended in chloroform. TLC (TLC silica gel 60 F254, Merck KgaA) was used to separate intracellular lipids. After development with hexane and ethyl acetate (6:1, v/v), intracellular lipids were visualized by radioactivity measurement.
# The effect of BMS309403 on IGF-1-induced lipid synthesis was measured using an immortalized human sebaceous cell line established in a previous study. Immortalized human sebocytes were treated with 1, 2 or 5 μM of BMS309403. After treatment with BMS309403 for 1 hour, sebocytes were treated with 50 ng/mL of IGF-1 to induce differentiation and lipid synthesis.
# IGF-1 increased the Intracellular lipid synthesis such as cholesterol, triglycerides, wax esters and squalene in immortalized human sebocytes.
smiles,measurement,setting,value
CCc1c(-c2ccccc2)c(-c2ccccc2)nn1-c1ccccc1-c1cccc(OCC(=O)O)c1 [BMS309403],level of SREBP-1 (transcription factor related to sebocyte differentiation),SREBP-1,decreased their levels in a dose-dependent manner
same,level of PPAR-γ (transcription factor related to sebocyte differentiation),PPAR-γ,decreased their levels in a dose-dependent manner
same,phosphorylation of IGFR,phospho-IGFR (p-IGFR),markedly reduced phosphorylation of IGFR and Akt in a dose-dependent manner
same,phosphorylation of Akt,phospho-Akt,markedly reduced phosphorylation of IGFR and Akt in a dose-dependent manner
same,"IGF-1-induced lipid synthesis (cholesterol, triglycerides, wax esters and squalene)",[1],reduced IGF-1-induced lipid synthesis
same,intracellular lipid accumulation,[1],reduced intracellular lipid accumulation in a dose-dependent manner
same,synthesis of squalene,[1],significantly reduced
same,synthesis of wax esters,[1],significantly reduced
